# Target: T1, CD1687 (Clostridioides difficile, UniProt Q186P2)
# T1 construct: gene CD630_16870; signal peptide removed, hexahistidine tag kept, expressed in E. coli Bli5 from a pET20-derived plasmid, Ni-NTA purified
# Assay: surface plasmon resonance (Biacore T200), His-tagged protein captured on Ni-NTA chip
# Assay type: binding
# T1 sequence (Q186P2 entry or part of it): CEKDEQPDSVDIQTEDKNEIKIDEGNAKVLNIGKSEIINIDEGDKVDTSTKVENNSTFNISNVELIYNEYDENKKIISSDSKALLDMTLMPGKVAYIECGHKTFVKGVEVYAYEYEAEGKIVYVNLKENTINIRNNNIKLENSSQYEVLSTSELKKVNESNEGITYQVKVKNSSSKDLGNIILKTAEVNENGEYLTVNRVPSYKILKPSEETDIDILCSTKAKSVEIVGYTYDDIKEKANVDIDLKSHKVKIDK
smiles,measurement,value
C[C@H](CCC(=O)O)[C@H]1CC[C@H]2[C@@H]3CC[C@@H]4C[C@H](O)CC[C@]4(C)[C@H]3C[C@H](O)[C@]12C [deoxycholate],Kd,1.65 ± 0.58 mM

# — PMC10175255, “The cell wall lipoprotein CD1687 acts as a DNA binding protein during deoxycholate-induced biofilm formation in Clostridioides difficile” (NPJ Biofilms and Microbiomes, 2023)
